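Five concentrations, 48 hours, 96-well plates. TGI marks complete inhibition of growth.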
Tested on: HT29 colon
Test: growth of human tumour cells (NCI), 48 h

With `CCOC(=O)c1c(NNc2ccccc2)nc2ccccc2c1-c1ccccc1` the TGI was > 100 µM.

Tested on: SNB-19 CNS
Test: growth of human tumour cells (NCI), 48 h

Compared with `COc1ccccc1N=NC(C(=O)c1ccccc1)C(=O)c1ccccc1`, `CCOC(=O)c1c(NNc2ccccc2)nc2ccccc2c1-c1ccccc1` is higher in TGI: 70.1 µM for the first, > 100 µM for the second.

`CC(=O)O[C@]1(C)CCC2C(C)C(=O)OC2C2C(C)[C@@H](O)CC21` (some centres undefined) and `CCOC(=O)/C=C1/Oc2ccccc2C1(C)O` (centres undefined) cannot be ordered by TGI: > 100 µM for the first, > 100 µM for the second.

With `Cc1ccc(-c2cc(=O)c3cc4c(cc3[nH]2)OCO4)cc1` the TGI was > 100 µM.

Tested on: U251 CNS
Test: growth of human tumour cells (NCI), 48 h

`COc1ccccc1N=NC(C(=O)c1ccccc1)C(=O)c1ccccc1` and `CCOC(=O)c1c(NNc2ccccc2)nc2ccccc2c1-c1ccccc1` cannot be ordered by TGI: > 100 µM for the first, > 100 µM for the second.

`CC(=O)O[C@]1(C)CCC2C(C)C(=O)OC2C2C(C)[C@@H](O)CC21` (some centres undefined) and `CCOC(=O)/C=C1/Oc2ccccc2C1(C)O` (centres undefined) cannot be ordered by TGI: > 100 µM for the first, > 100 µM for the second.

With `Cc1ccc(-c2cc(=O)c3cc4c(cc3[nH]2)OCO4)cc1` the TGI was 10.5 µM.

Tested on: XF 498 CNS
Test: growth of human tumour cells (NCI), 48 h

Work on `COc1ccccc1N=NC(C(=O)c1ccccc1)C(=O)c1ccccc1` yielded a TGI of 53.5 µM.

Tested on: SF-268 CNS
Test: growth of human tumour cells (NCI), 48 h

First: COc1ccccc1N=NC(C(=O)c1ccccc1)C(=O)c1ccccc1
Second: CCOC(=O)c1c(NNc2ccccc2)nc2ccccc2c1-c1ccccc1
The TGI of the first is higher: > 100 µM for the first, 91.9 µM for the second.

`CC(=O)O[C@]1(C)CCC2C(C)C(=O)OC2C2C(C)[C@@H](O)CC21` (some centres undefined) and `CCOC(=O)/C=C1/Oc2ccccc2C1(C)O` (centres undefined) cannot be ordered by TGI: > 100 µM for the first, > 100 µM for the second.

With `Cc1ccc(-c2cc(=O)c3cc4c(cc3[nH]2)OCO4)cc1` the TGI was > 72.1 µM.

Tested on: NCI-H460 lung
Test: growth of human tumour cells (NCI), 48 h

`COc1ccccc1N=NC(C(=O)c1ccccc1)C(=O)c1ccccc1` and `CCOC(=O)c1c(NNc2ccccc2)nc2ccccc2c1-c1ccccc1` are within 1.5-fold of each other in TGI: 82.2 µM for the first, 67.3 µM for the second.

`CC(=O)O[C@]1(C)CCC2C(C)C(=O)OC2C2C(C)[C@@H](O)CC21` (some centres undefined) and `CCOC(=O)/C=C1/Oc2ccccc2C1(C)O` (centres undefined) cannot be ordered by TGI: > 100 µM for the first, > 100 µM for the second.

With `Cc1ccc(-c2cc(=O)c3cc4c(cc3[nH]2)OCO4)cc1` the TGI was 3.82 µM.

Tested on: COLO 205 colon
Test: growth of human tumour cells (NCI), 48 h

`COc1ccccc1N=NC(C(=O)c1ccccc1)C(=O)c1ccccc1` and `CCOC(=O)c1c(NNc2ccccc2)nc2ccccc2c1-c1ccccc1` cannot be ordered by TGI: > 100 µM for the first, > 100 µM for the second.

Going from `CC(=O)O[C@]1(C)CCC2C(C)C(=O)OC2C2C(C)[C@@H](O)CC21` (some centres undefined) to `CCOC(=O)/C=C1/Oc2ccccc2C1(C)O` (centres undefined), the TGI rises from 36.2 µM to > 100 µM.

Tested on: KM20L2 colon
Test: growth of human tumour cells (NCI), 48 h

First: COc1ccccc1N=NC(C(=O)c1ccccc1)C(=O)c1ccccc1
Second: CCOC(=O)c1c(NNc2ccccc2)nc2ccccc2c1-c1ccccc1
The TGI of the first is lower: 58.2 µM for the first, > 100 µM for the second.

First: CC(=O)O[C@]1(C)CCC2C(C)C(=O)OC2C2C(C)[C@@H](O)CC21 (some centres undefined)
Second: CCOC(=O)/C=C1/Oc2ccccc2C1(C)O (centres undefined)
The TGI of the first is lower: 71.2 µM for the first, > 100 µM for the second.

With `Cc1ccc(-c2cc(=O)c3cc4c(cc3[nH]2)OCO4)cc1` the TGI was 3.43 µM.

Tested on: EKVX NSCLC
Test: growth of human tumour cells (NCI), 48 h

First: COc1ccccc1N=NC(C(=O)c1ccccc1)C(=O)c1ccccc1
Second: CCOC(=O)c1c(NNc2ccccc2)nc2ccccc2c1-c1ccccc1
The TGI of the first is lower: 67.8 µM for the first, > 100 µM for the second.

`CC(=O)O[C@]1(C)CCC2C(C)C(=O)OC2C2C(C)[C@@H](O)CC21` (some centres undefined) and `CCOC(=O)/C=C1/Oc2ccccc2C1(C)O` (centres undefined) cannot be ordered by TGI: > 100 µM for the first, > 100 µM for the second.

With `Cc1ccc(-c2cc(=O)c3cc4c(cc3[nH]2)OCO4)cc1` the TGI was > 100 µM.

Tested on: CCRF-CEM leukemia
Test: growth of human tumour cells (NCI), 48 h

`COc1ccccc1N=NC(C(=O)c1ccccc1)C(=O)c1ccccc1` and `CCOC(=O)c1c(NNc2ccccc2)nc2ccccc2c1-c1ccccc1` are within 1.5-fold of each other in TGI: 60 µM for the first, 58.3 µM for the second.

`CC(=O)O[C@]1(C)CCC2C(C)C(=O)OC2C2C(C)[C@@H](O)CC21` (some centres undefined) and `CCOC(=O)/C=C1/Oc2ccccc2C1(C)O` (centres undefined) cannot be ordered by TGI: > 100 µM for the first, > 100 µM for the second.

With `Cc1ccc(-c2cc(=O)c3cc4c(cc3[nH]2)OCO4)cc1` the TGI was > 100 µM.

Tested on: SN12C renal
Test: growth of human tumour cells (NCI), 48 h

Going from `COc1ccccc1N=NC(C(=O)c1ccccc1)C(=O)c1ccccc1` to `CCOC(=O)c1c(NNc2ccccc2)nc2ccccc2c1-c1ccccc1`, the TGI rises from 53.1 µM to 92.3 µM (1.7-fold).

`CC(=O)O[C@]1(C)CCC2C(C)C(=O)OC2C2C(C)[C@@H](O)CC21` (some centres undefined) and `CCOC(=O)/C=C1/Oc2ccccc2C1(C)O` (centres undefined) cannot be ordered by TGI: > 100 µM for the first, > 100 µM for the second.

`Cc1ccc(-c2cc(=O)c3cc4c(cc3[nH]2)OCO4)cc1` was tested, and the TGI was > 100 µM.

Tested on: SK-OV-3 ovarian
Test: growth of human tumour cells (NCI), 48 h

First: COc1ccccc1N=NC(C(=O)c1ccccc1)C(=O)c1ccccc1
Second: CCOC(=O)c1c(NNc2ccccc2)nc2ccccc2c1-c1ccccc1
The TGI of the first is lower: 89.4 µM for the first, > 100 µM for the second.

`CC(=O)O[C@]1(C)CCC2C(C)C(=O)OC2C2C(C)[C@@H](O)CC21` (some centres undefined) and `CCOC(=O)/C=C1/Oc2ccccc2C1(C)O` (centres undefined) cannot be ordered by TGI: > 100 µM for the first, > 100 µM for the second.

`Cc1ccc(-c2cc(=O)c3cc4c(cc3[nH]2)OCO4)cc1` was tested, and the TGI was 28.9 µM.

Tested on: IGROV1 ovarian
Test: growth of human tumour cells (NCI), 48 h

`COc1ccccc1N=NC(C(=O)c1ccccc1)C(=O)c1ccccc1` and `CCOC(=O)c1c(NNc2ccccc2)nc2ccccc2c1-c1ccccc1` cannot be ordered by TGI: > 100 µM for the first, > 100 µM for the second.

`CC(=O)O[C@]1(C)CCC2C(C)C(=O)OC2C2C(C)[C@@H](O)CC21` (some centres undefined) and `CCOC(=O)/C=C1/Oc2ccccc2C1(C)O` (centres undefined) cannot be ordered by TGI: > 100 µM for the first, > 100 µM for the second.

`Cc1ccc(-c2cc(=O)c3cc4c(cc3[nH]2)OCO4)cc1` was tested, and the TGI was > 100 µM.

Tested on: SF-295 CNS
Test: growth of human tumour cells (NCI), 48 h

Compared with `COc1ccccc1N=NC(C(=O)c1ccccc1)C(=O)c1ccccc1`, `CCOC(=O)c1c(NNc2ccccc2)nc2ccccc2c1-c1ccccc1` is higher in TGI: 87.6 µM for the first, > 100 µM for the second.

`CC(=O)O[C@]1(C)CCC2C(C)C(=O)OC2C2C(C)[C@@H](O)CC21` (some centres undefined) and `CCOC(=O)/C=C1/Oc2ccccc2C1(C)O` (centres undefined) cannot be ordered by TGI: > 100 µM for the first, > 100 µM for the second.

`Cc1ccc(-c2cc(=O)c3cc4c(cc3[nH]2)OCO4)cc1` gave a TGI of 11.6 µM.

Tested on: UACC-257 melanoma
Test: growth of human tumour cells (NCI), 48 h

Going from `COc1ccccc1N=NC(C(=O)c1ccccc1)C(=O)c1ccccc1` to `CCOC(=O)c1c(NNc2ccccc2)nc2ccccc2c1-c1ccccc1`, the TGI rises from 89.2 µM to > 100 µM.

`CC(=O)O[C@]1(C)CCC2C(C)C(=O)OC2C2C(C)[C@@H](O)CC21` (some centres undefined) and `CCOC(=O)/C=C1/Oc2ccccc2C1(C)O` (centres undefined) cannot be ordered by TGI: > 100 µM for the first, > 100 µM for the second.

For `Cc1ccc(-c2cc(=O)c3cc4c(cc3[nH]2)OCO4)cc1`, the TGI was > 100 µM.

Tested on: LOX IMVI melanoma
Test: growth of human tumour cells (NCI), 48 h

Going from `COc1ccccc1N=NC(C(=O)c1ccccc1)C(=O)c1ccccc1` to `CCOC(=O)/C=C1/Oc2ccccc2C1(C)O` (centres undefined), the TGI rises from 51.1 µM to > 100 µM.

For `CC(=O)O[C@]1(C)CCC2C(C)C(=O)OC2C2C(C)[C@@H](O)CC21` (some centres undefined), the TGI was 34.2 µM.

Reference: PubChem BioAssay (NCI)
